Measurements taken from patent US20230286973A1, “PROTEIN SECRETION INHIBITORS” (KEZAR LIFE SCIENCES, priority 2020, published 2023).

Tests used:
[1] = Liver Microsome Stability Assay (mouse); settings: mouse liver microsomes, with NADPH, 1.0 uM compound
Procedure: (§1) Stability of a compound was assessed in the presence of liver microsomes from various sources—mouse, rat, monkey and human liver microsomes. 1.0 uM compound, 0.4% DMSO in 0.1 M Potassium Phosphate with 1.0 mg/mL liver microsomes, were incubated at 37° C. with or without 1 mM NADPH. The samples were quenched at 0, and 30 minutes.

[2] = system: multiple myeloma cell line U266B1; test: U266 Cell Viability Assay; type: cell-based, human; settings: Homo sapiens, U-266, 48 h, U266B1 cells, Celltiter-Glo
Procedure, shortened: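 Steps: culture in RPMI 1640 plus 10% FBS and 2 mM glutamine; plate and add compound dilutions; incubate 48 hours at 37° C., 5% CO2; add CellTiter-Glo and quantify luciferase signal.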

[3] = Liver Microsome Stability Assay (monkey); settings: monkey liver microsomes, with NADPH, 1.0 uM compound
Procedure: as §1

[4] = system: multiple myeloma cell line NCI-H929; test: H929 Cell Viability Assay; type: cell-based, human; settings: Homo sapiens, NCI-H929, 48 h, NCI-H929 cells, Celltiter-Glo
Procedure, shortened: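 Luminescent ATP detection (CellTiter-Glo) after 48 hours of compound exposure measures viability. Cells were plated in RPMI 1640 containing 10% fetal bovine serum and kept at 37° C under 5% CO2.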

[5] = system: PD1-ss+10aa/Gaussia Luciferase; test: Dox-Induced PD1-ss-Gluc Assay; type: cell-based; settings: 24 hr Dox induction; 293FRT/TO cells; read-out: 24 hr Dox Inducible PD1ssGluc 293FRT/TO: Mean IC50
Procedure, shortened: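 Flp-In 293 T-REx cells stably carrying a doxycycline-inducible Gaussia luciferase fused to the PD1 signal sequence plus 10 aa were plated the day before. Compound dilutions in DMSO/media containing doxycycline were then added and incubated at 37 °C, 5% CO2. Data for undefined stereochemistry refer to stereoisomer mixtures.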

[6] = Liver Microsome Stability Assay (human); settings: human liver microsomes, with NADPH, 1.0 uM compound
Procedure: as §1

[7] = system: TNFα-FL/Gaussia Luciferase; test: Dox Induced TNFα-FL-Gluc Assay; type: cell-based; settings: for IC50: 24 hr Dox induction, 293FRT/TO cells, read-out: 24 hr Dox Inducible TNFaFLGluc 293FRT/TO: Mean IC50; for 24 hr Dox Inducible TNFaFLGluc 293FRT/TO: TNF/PD1: ratio of TNFaFLGluc IC50 to PD1ssGluc IC50
Procedure, shortened: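 Stereoisomer mixtures were tested where stereochemistry is not drawn. Induction used doxycycline added together with compound dilutions in DMSO/media to Flp-In 293 T-REx cells carrying a T-REx-regulated TNFα (aa 1-233)-Gaussia luciferase construct, then incubated at 37 °C, 5% CO2.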

[8] = system: HER3-ss+4aa/Gaussia Luciferase; test: Dox-Induced Her3-ss-Gluc Assay; type: cell-based; settings: 24 hr Dox induction; 293FRT/TO cells; read-out: 24 hr Dox Inducible Her3(ss + 4)Gluc 293FRT/TO: Mean IC50
Procedure, shortened: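 Cells were seeded a day ahead, then given compound diluted in DMSO/media with doxycycline to induce expression of the HER3 signal sequence (+4 aa)–Gaussia luciferase fusion. Incubation was at 37° C., 5% CO2, in a stable Flp-In 293 T-REx line.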

[9] = Liver Microsome Stability Assay (rat); settings: rat liver microsomes, with NADPH, 1.0 uM compound
Procedure: as §1

[10] = system: IL-2-FL/Gaussia Luciferase; test: Dox Induced IL2-FL-Gluc Assay; type: cell-based; settings: for IC50: 24 hr Dox induction, 293FRT/TO cells, read-out: 24 hr Dox Inducible IL2FLGluc 293FRT/TO: Mean IC50; for 24 hr Dox Inducible IL2FLGluc 293FRT/TO: IL2/PD1: ratio of IL2FLGluc IC50 to PD1ssGluc IC50
Procedure, shortened: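 Cells are plated one day ahead, then receive compound dilutions in DMSO/media with doxycycline and incubate at 37° C, 5% CO2. They are Flp-In 293 T-REx cells expressing a full-length IL-2 (amino acids 1-153)–Gaussia luciferase fusion under T-REx control.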

| SMILES | Liver Microsome Stability (Multiple Species): Mouse - % Remaining after 30 min w/NADPH [1] | EC50 [2] | Liver Microsome Stability (Multiple Species): Monkey - % Remaining after 30 min w/NADPH [3] | EC50 [4] | IC50 [5] | Liver Microsome Stability (Multiple Species): Human - % Remaining after 30 min w/NADPH [6] | IC50 [7] | IC50 [8] | Liver Microsome Stability (Multiple Species): Rat - % Remaining after 30 min w/NADPH [9] | IC50 [10] | 24 hr Dox Inducible TNFaFLGluc 293FRT/TO: TNF/PD1 [7] | 24 hr Dox Inducible IL2FLGluc 293FRT/TO: IL2/PD1 [10] |
| --- | --- | --- | --- | --- | --- | --- | --- | --- | --- | --- | --- | --- |
| CC(C)n1cnc(-c2cccc(-c3csc(NC(=O)c4cccn4Cc4ccnc(F)c4)n3)c2)c1 [Compound A167, 1-((2-fluoropyridin-4-yl)methyl)-N-(4-(3-(1-isopropyl-1H-imidazol-4-yl)phenyl)thiazol-2-yl)-1H-pyrrole-2-carboxamide] | 12% | > 25000 nM | 0.15% | > 25000 nM | 362 nM | 0.06% | > 25000 nM | 603 nM | 13% | 1450 nM | >69.1 | 4 |
| CC(C)n1cnc(-c2ccccc2-c2csc(NC(=O)c3cccn3Cc3ccnc(F)c3)n2)c1 [Compound A169, 1-((2-fluoropyridin-4-yl)methyl)-N-(4-(2-(1-isopropyl-1H-imidazol-4-yl)phenyl)thiazol-2-yl)-1H-pyrrole-2-carboxamide] | 0.08% | 15000 nM | 0.11% | 7810 nM | 967 nM | 0.17% | 6900 nM | 1640 nM | 0.02% | 2170 nM | 7.13 | 2.2 |
| O=C(Nc1nc([C@H]2CCCN2c2ccc(OC3CCSCC3)cc2)cs1)c1cccn1Cc1ccnc(F)c1 [Compound A170, (R)-1-((2-fluoropyridin-4-yl)methyl)-N-(4-(1-(4-((tetrahydro-2H-thiopyran-4-yl)oxy)phenyl)pyrrolidin-2-yl)thiazol-2-yl)-1H-pyrrole-2-carboxamide] | 1.37% | > 25000 nM | 2.6% | 5710 nM | 68.3 nM | 0.58% | 687 nM | 81.1 nM | 2.02% | 83.4 nM | 10.1 | 1.2 |
| O=C(Nc1ccc(N2CCC[C@@H]2c2csc(NC(=O)c3cccn3Cc3ccnc(F)c3)n2)cc1)O[C@H]1CCOC1 [Compound A174, (S)-tetrahydrofuran-3-yl (4-((R)-2-(2-(1-((2-fluoropyridin-4-yl)methyl)-1H-pyrrole-2-carboxamido)thiazol-4-yl)pyrrolidin-1-yl)phenyl)carbamate] | 29.4% | > 25000 nM | 15.4% | 77.4 nM | 2.62 nM | 38% | 81.1 nM | 6.19 nM | 42.5% | 8.01 nM | 30.9 | 3.1 |
| COC(=O)Nc1ccc(N2CCC[C@@H]2c2csc(NC(=O)c3cccn3Cc3ccnc(F)c3)n2)nc1 [Compound A175, methyl (R)-(6-(2-(2-(1-((2-fluoropyridin-4-yl)methyl)-1H-pyrrole-2-carboxamido)thiazol-4-yl)pyrrolidin-1-yl)pyridin-3-yl)carbamate] | 1.57% | > 25000 nM | 0.22% | 188 nM | 3.02 nM | 1.38% | 80.7 nM | 7.95 nM | 0.32% | 12.9 nM | 26.7 | 4.3 |

More lines, main results first:

| Liver Microsome Stability (Multiple Species): Mouse - % Remaining after 30 min w/NADPH [1] | EC50 [2] | Liver Microsome Stability (Multiple Species): Monkey - % Remaining after 30 min w/NADPH [3] | EC50 [4] | IC50 [5] | Liver Microsome Stability (Multiple Species): Human - % Remaining after 30 min w/NADPH [6] | IC50 [7] | IC50 [8] | Liver Microsome Stability (Multiple Species): Rat - % Remaining after 30 min w/NADPH [9] | IC50 [10] | SMILES | 24 hr Dox Inducible TNFaFLGluc 293FRT/TO: TNF/PD1 [7] | 24 hr Dox Inducible IL2FLGluc 293FRT/TO: IL2/PD1 [10] |
| --- | --- | --- | --- | --- | --- | --- | --- | --- | --- | --- | --- | --- |
| 0.09% | > 25000 nM | 0.02% | 2710 nM | 35 nM | 0.45% | 569 nM | 60.5 nM | 0.52% | 53.7 nM | O=C(Nc1nc(-c2ccccc2-c2ccccn2)cs1)c1cccn1Cc1ccnc(F)c1 [Compound A168, 1-((2-fluoropyridin-4-yl)methyl)-N-(4-(2-(pyridin-2-yl)phenyl)thiazol-2-yl)-1H-pyrrole-2-carboxamide] | 16.3 | 1.5 |
| 17.3% | > 25000 nM | 28.5% | 159 nM | 3.57 nM | 36.8% | 71.9 nM | 4.33 nM | 16% | 6.54 nM | O=C(Nc1ccc(N2CCC[C@@H]2c2csc(NC(=O)c3cccn3Cc3ccnc(F)c3)n2)cc1)O[C@@H]1CCOC1 [Compound A171, (R)-tetrahydrofuran-3-yl (4-((R)-2-(2-(1-((2-fluoropyridin-4-yl)methyl)-1H-pyrrole-2-carboxamido)thiazol-4-yl)pyrrolidin-1-yl)phenyl)carbamate] | 20.1 | 1.8 |
| 44.9% | > 25000 nM | 43.3% | 190 nM | 2.66 nM | 65.3% | 50.4 nM | 5.18 nM | 19.7% | 5.99 nM | COC(=O)Nc1ccc(N2CCC[C@@H]2c2csc(NC(=O)c3cc(C)cn3Cc3ccnc(F)c3)n2)cc1 [Compound A172, methyl (R)-(4-(2-(2-(1-((2-fluoropyridin-4-yl)methyl)-4-methyl-1H-pyrrole-2-carboxamido)thiazol-4-yl)pyrrolidin-1-yl)phenyl)carbamate] | 19 | 2.3 |
| 23.8% | 8750 nM | 54.6% | 842 nM | 15.9 nM | 70.3% | 323 nM | 26.9 nM | 17.4% | 40.4 nM | CN1CC(OC(=O)Nc2ccc(N3CCC[C@@H]3c3csc(NC(=O)c4cccn4Cc4ccnc(F)c4)n3)cc2)C1 [Compound A173, 1-methylazetidin-3-yl (R)-(4-(2-(2-(1-((2-fluoropyridin-4-yl)methyl)-1H-pyrrole-2-carboxamido)thiazol-4-yl)pyrrolidin-1-yl)phenyl)carbamate] | 20.3 | 2.5 |
